Consider three compounds from patent US12036221B2, “Ketamine or dextromethorphan formulations and methods of use” (West Virginia University, priority 2014, dated 2024).

Each structure is given as a SMILES string.

One data set has as its system depression. The conditions noted are these: cited from earlier work.
The next data set relates to sigma receptors. To be noted: cited from earlier work.
For data set [1], the system named is treatment resistant patients. Briefly: off-label use of transbuccal ketamine in treatment resistant patients (day-hospital, preliminary data).
The nature of data set [2]: forced swim test (preclinical). In kind it is in vivo. To be noted: preclinical studies.
A further data set relates to NMDA receptors. The conditions noted are these: cited from earlier work.
The conditions of data set [3]: in vivo; cited from earlier work.

`CNC1(c2ccccc2Cl)CCCCC1=O` (stereo not drawn) [ketamine]: in the data set with depression (in vivo), the “duration of antidepressant effects” value is listed as “up to two”. For the same compound, the “onset of antidepressant effects after administration” value in the data set with depression (off-label use) is at most 24 h. Further, the “onset of rapid acting antidepressant effects” value with depression (sub-anesthetic doses) is “two”. Also, the “affinity for sigma receptors” value in the data set with sigma receptors is “significant affinity”. The “onset of antidepressant effects” value in data set [1] (0.5 mg/kg liquid ketamine held in the mouth (transbuccal), patient report and clinician observation) was at most 24 h. In data set [1] (0.5 mg/kg liquid ketamine, transbuccal / oral mucosa absorption), the side effects result was “No side effects (except for a transient, mild headache and slight dizziness in one patient each soon after administration)”. Also, the “immobility time in the forced swim test” value in data set [2] was “dose dependently reduces immobility time”.

For `CN(C)CCCN1c2ccccc2CCc2ccccc21` [imipramine], in data set [2], the “immobility time in the forced swim test” value is given as “dose dependently reduces immobility time”.

As to `COc1ccc2c(c1)[C@]13CCCC[C@@H]1[C@H](C2)N(C)CC3` [DM, dextromethorphan], the “affinity for sigma receptors” value in the data set with sigma receptors is recorded as “significant affinity”. Moreover, the “immobility time in the forced swim test” value in data set [2] was “dose dependently reduces immobility time”. The “affinity for NMDA receptors” value in the data set with NMDA receptors is listed as “moderate affinity”. For the same compound, in data set [3], the “metabolism in the body” value was “rapidly metabolized in the body to dextrorphan”.
